Reference: patent publication US4691046A, “Butanedioic acid mono [(2-dimethylamino] ethyl ester)succinate” (Institut Organicheskoi Khimii Ordena Lenina I Ordena …, priority 1986, dated 1987)

Columns and labels:
Solubility = assay type: physicochemical
[1] = Blood glucose and organ glycogen upon predetermined (2.5 h) cold treatment (adaptation experiment); assay type: in vivo, mice; conditions: no adaptation, preparation 1 hour prior to the testing effect, 2.5 h at -14° C.
[2] = Toxicity upon intraperitoneal administration; conditions: mouse, in vivo, ip

For CN(C)CCOC(=O)CCC(=O)O [Compound of this invention, butanedioic acid mono[(2-dimethylamino)ethyl ester]succinate], the solubility in acetone (Solubility; acetone) was “sparingly soluble”, the solubility in ethanol (Solubility; ethanol) was “sparingly soluble” and the solubility in water (Solubility; water) was “well soluble”. For the same compound, the “Glycogen, heart” value ([1]; control 1.7 ± 0.2) was 2.2 ± 3.4 mg/g, the “Glycogen, liver” value ([1]; control 6.7 ± 0.4) was 7.1 ± 2.6 mg/g and the Blood glucose ([1]; control 37 ± 6) was 59 ± 2.6 mg. %. It also gave an LD50 [2] of 3040 mg/kg.
